Data taken from EPA's ToxRefDB 2.

Legend:
mouse [1] = conditions: Subchronic oral toxicity in rodents, b6c3f1, Feed, dose end: 13 week, group: systemic
rat [2] = conditions: Subchronic oral toxicity in rodents, fischer, Feed, dose end: 13 week, group: systemic
rat [3] = conditions: Carcinogenicity, fischer, Oral, Feed, dose end: 105 week, group: systemic
mouse [4] = conditions: Carcinogenicity, b6c3f1, Oral, Feed, dose end: 105 week, group: systemic
mouse [5] = conditions: Carcinogenicity, cd1, Oral, Feed, dose end: 78 week, group: systemic
rabbit [6] = conditions: Prenatal developmental toxicity study, other, Oral, Gavage/Intubation, dose end: 27 GD
rat [7] = conditions: Multigenerational reproductive toxicity study, sprague dawley, Oral, Feed, dose end: 2 generation
rat [8] = conditions: Combined chronic toxicity/carcinogenicity, sprague dawley, Oral, Feed, dose end: 104 week, group: systemic
dog = conditions: Chronic toxicity; beagle; Oral; Capsule; dose end: 12 month; group: systemic; systemic / clinical chemistry / alkaline phosphatase (alp/alk) / alkaline phosphatase (alp/alk) + systemic / organ weight / liver / absolute…
rat [9] = conditions: Subchronic oral toxicity in rodents, sprague dawley, Feed, dose end: 90 day, group: systemic, systemic / in life observation / body weight / body weight gain + systemic / in life observation / food consumption / food consumption + …
mouse [10] = conditions: Subchronic oral toxicity in rodents, cd1, Feed, dose end: 90 day, group: systemic
rat [11] = conditions: Subchronic oral toxicity in rodents, sprague dawley, Gavage/Intubation, dose end: 90 day, group: systemic
rat [12] = conditions: Subchronic oral toxicity in rodents, Sprague Dawley, Feed, dose end: 14 week, group: systemic
rat [13] = conditions: Developmental neurotoxicity study, sprague dawley, Oral, Gavage/Intubation, dose end: 72 PND, group: cannot be grouped
rat [14] = conditions: Multigenerational reproductive toxicity study, sprague dawley, Oral, Gavage/Intubation, dose end: 2 generation
rat [15] = conditions: Combined chronic toxicity/carcinogenicity, Crl: CD (SD) IGS BR, Oral, Feed, dose end: 104 week, group: systemic
rat [16] = conditions: Prenatal developmental toxicity study, sprague dawley, Oral, Gavage/Intubation, dose end: 17 GD
rabbit [17] = conditions: Prenatal developmental toxicity study, new zealand white, Oral, Gavage/Intubation, dose end: 18 GD, group: maternal
[18] = systemic / in life observation / body weight / body weight + systemic / in life observation / body weight / body weight gain + systemic / …
[19] = systemic / in life observation / food consumption / food consumption + systemic / organ weight / brain / absolute + systemic / organ weight…
[20] = systemic / in life observation / body weight / body weight gain
[21] = systemic / pathology microscopic / blood / leukemia mononuclear + systemic / pathology microscopic / esophagus / squamous cell papilloma + …
[22] = systemic / pathology microscopic / mammary gland / fibroadenoma + systemic / pathology microscopic / oral mucosa / squamous cell papilloma…
[23] = systemic / pathology microscopic / blood vessel / [other] + systemic / in life observation / clinical signs / [other] + systemic / in life …
[24] = systemic / in life observation / body weight / body weight + systemic / in life observation / body weight / body weight gain + systemic / in…
[25] = group: developmental, systemic / in life observation / body weight / fetal weight
[26] = group: maternal, reproductive / reproductive performance / aborted / aborted + reproductive / reproductive performance / premature delivery / premature …
[27] = group: offspring, systemic / in life observation / body weight / offspring (pup) weight + systemic / in life observation / body weight / offspring (pup) …
[28] = group: parental, systemic / in life observation / body weight / body weight + systemic / in life observation / body weight / body weight gain + systemic / in…
[29] = systemic / pathology microscopic / mammary gland / adenoacanthoma
[30] = systemic / clinical chemistry / triglycerides / triglycerides
[31] = systemic / pathology microscopic / stomach / acanthosis + systemic / pathology microscopic / stomach / hyperkeratosis + systemic / clinical …
[32] = systemic / clinical chemistry / aspartate aminotransferase (ast/sgot) / aspartate aminotransferase (ast/sgot) + systemic / clinical …
[33] = group: offspring, developmental / developmental landmark / eye opening / eye opening + developmental / developmental landmark / pinna unfolding / pinna …
[34] = group: reproductive, reproductive / offspring survival early / litter viability other / total litter loss
[35] = group: reproductive, reproductive / reproductive performance / gestational length / gestational length + reproductive / reproductive performance / implantations…
[36] = systemic / in life observation / body weight / body weight + systemic / organ weight / liver / relative to body weight + systemic / …
[37] = group: maternal, systemic / in life observation / body weight / body weight gain + systemic / in life observation / food consumption / food consumption
[38] = systemic / in life observation / body weight / body weight + systemic / in life observation / clinical signs / soft stools + systemic / in …

Structure (SMILES): OCC(CO)(CBr)CBr [2,2-Bis(bromomethyl)-1,3-propanediol]
- LOAEL (mouse [1]; [18]): 500 mg/kg/day
- NOAEL (mouse [1]; [18]): 200 mg/kg/day
- LEL (mouse [1]; [19]): 100 mg/kg/day
- NEL (mouse [1]; [19]): < 100 mg/kg/day
- LOAEL (rat [2]; [18]): 400 mg/kg/day
- NOAEL (rat [2]; [18]): 200 mg/kg/day
- LEL (rat [2]; [20]): 100 mg/kg/day
- NEL (rat [2]; [20]): < 100 mg/kg/day
- LOAEL (rat [3]; [21]): > 430 mg/kg/day
- NOAEL (rat [3]; [21]): ≥ 430 mg/kg/day
- LEL (rat [3]; [22]): 100 mg/kg/day
- NEL (rat [3]; [22]): < 100 mg/kg/day
- LEL (mouse [4]; [23]): 35 mg/kg/day
- NEL (mouse [4]; [23]): < 35 mg/kg/day
- LOAEL (mouse [4]; systemic / pathology microscopic / lung / hyperplasia): 80 mg/kg/day
- NOAEL (mouse [4]; systemic / pathology microscopic / lung / hyperplasia + systemic / pathology microscopic / blood vessel / [other] + systemic / pathology …): 40 mg/kg/day

Structure (SMILES): FC(F)(F)c1ccc(OCCCOc2c(Cl)cc(OCC=C(Cl)Cl)cc2Cl)nc1 [Pyridalyl]
- LEL (mouse [5]; systemic / hematology / mean corpuscular (cell) volume (mcv) / mean corpuscular (cell) volume (mcv)): 5.04 mg/kg/day
- NEL (mouse [5]; systemic / hematology / mean corpuscular (cell) volume (mcv) / mean corpuscular (cell) volume (mcv) + systemic / hematology / lymphocyte / …): 1.57 mg/kg/day
- LOAEL (mouse [5]; [24]): 99 mg/kg/day
- NOAEL (mouse [5]; [24]): 4.78 mg/kg/day
- LEL (rabbit [6]; [25]): 150 mg/kg/day
- LOAEL (rabbit [6]; [25]): 150 mg/kg/day
- NEL (rabbit [6]; [25]): 50 mg/kg/day
- NOAEL (rabbit [6]; [25]): 50 mg/kg/day
- LEL (rabbit [6]; [26]): 150 mg/kg/day
- LOAEL (rabbit [6]; [26]): 150 mg/kg/day
- NEL (rabbit [6]; [26]): 50 mg/kg/day
- NOAEL (rabbit [6]; [26]): 50 mg/kg/day
- LOAEL (rat [7]; [27]): 83.7 mg/kg/day
- NEL (rat [7]; [27]): 3.4 mg/kg/day
- NOAEL (rat [7]; [27]): 17 mg/kg/day
- LEL (rat [7]; group: offspring, systemic / organ weight / thymus / nos): 17 mg/kg/day
- LOAEL (rat [7]; [28]): 68.7 mg/kg/day
- NOAEL (rat [7]; [28]): 13.8 mg/kg/day
- LEL (rat [7]; group: parental, systemic / organ weight / testes / absolute): 17 mg/kg/day
- NEL (rat [7]; group: parental, systemic / organ weight / testes / absolute + systemic / in life observation / body weight / body weight + systemic / in life observation / …): 3.4 mg/kg/day
- LOAEL (rat [8]; [24]): 17.1 mg/kg/day
- NOAEL (rat [8]; [18]): 3.4 mg/kg/day
- LEL (rat [8]; [29]): 1.23 mg/kg/day
- NEL (rat [8]; [29]): < 1.23 mg/kg/day
- LEL (dog): 80 mg/kg/day
- LOAEL (dog): > 80 mg/kg/day
- NEL (dog): 20 mg/kg/day
- NOAEL (dog): ≥ 80 mg/kg/day
- LEL (rat [9]): 56 mg/kg/day
- LOAEL (rat [9]): 56 mg/kg/day
- NEL (rat [9]): 5.56 mg/kg/day
- NOAEL (rat [9]): 5.56 mg/kg/day
- LEL (mouse [10]; [30]): 9.5 mg/kg/day
- NEL (mouse [10]; [30]): < 9.5 mg/kg/day
- LOAEL (mouse [10]; [18]): 378 mg/kg/day
- NOAEL (mouse [10]; [18]): 81.7 mg/kg/day

Structure (SMILES): C1CN(CN2CCOCC2)CCO1 [4,4-Methylenedimorpholine]
- LOAEL (rat [11]; systemic / pathology microscopic / stomach / acanthosis + systemic / pathology microscopic / stomach / hyperkeratosis): 50 mg/kg/day
- NEL (rat [11]; [31]): 15 mg/kg/day
- NOAEL (rat [11]; [31]): 15 mg/kg/day
- LEL (rat [11]; systemic / pathology microscopic / stomach / acanthosis + systemic / pathology microscopic / stomach / hyperkeratosis + systemic / in life …): 50 mg/kg/day

Structure (SMILES): O=S(=O)([O-])C(F)(F)C(F)(F)C(F)(F)C(F)(F)C(F)(F)C(F)(F)C(F)(F)C(F)(F)F.[K+] [PFOS-K]
- NEL (rat [12]; systemic / clinical chemistry / alanine aminotransferase (alt/sgpt) / alanine aminotransferase (alt/sgpt) + systemic / clinical chemistry / …): 0.1 mg/kg/day
- LOAEL (rat [12]; [32]): > 1 mg/kg/day
- NOAEL (rat [12]; [32]): ≥ 1 mg/kg/day
- LEL (rat [12]; systemic / pathology microscopic / liver / hypertrophy + systemic / pathology microscopic / liver / vacuolization): 0.25 mg/kg/day
- LOAEL (rat [13]; systemic / in life observation / body weight / body weight): 1 mg/kg/day
- LEL (rat [13]; [24]): 1 mg/kg/day
- NEL (rat [13]; [24]): 0.3 mg/kg/day
- NOAEL (rat [13]; [24]): 0.3 mg/kg/day
- LEL (rat [14]; [33]): 1.6 mg/kg/day
- LOAEL (rat [14]; [33]): > 3.2 mg/kg/day
- NEL (rat [14]; [33]): 0.4 mg/kg/day
- NOAEL (rat [14]; [33]): ≥ 3.2 mg/kg/day
- LOAEL (rat [14]; [28]): > 3.2 mg/kg/day
- NEL (rat [14]; [28]): 0.1 mg/kg/day
- NOAEL (rat [14]; [28]): ≥ 3.2 mg/kg/day
- LEL (rat [14]; group: parental, systemic / in life observation / body weight / body weight gain): 0.4 mg/kg/day
- LEL (rat [14]; [34]): 1.6 mg/kg/day
- NEL (rat [14]; [34]): 0.4 mg/kg/day
- LOAEL (rat [14]; [35]): > 3.2 mg/kg/day
- NOAEL (rat [14]; [35]): ≥ 3.2 mg/kg/day
- LOAEL (rat [15]; [36]): > 1 mg/kg/day
- NOAEL (rat [15]; [36]): ≥ 1 mg/kg/day
- NEL (rat [15]; systemic / pathology microscopic / liver / adenoma + systemic / in life observation / body weight / body weight + systemic / organ weight / …): 0.025 mg/kg/day
- LEL (rat [15]; systemic / pathology microscopic / liver / degeneration + systemic / pathology microscopic / liver / eosinophilic focus): 0.1 mg/kg/day

Structure (SMILES): CC(C)n1cc2c3c(cccc31)[C@H]1C[C@@H](C(=O)NC3CCCCC3)CN(C)[C@@H]1C2 [Amesergide]
- LEL (rat [16]; [25]): 30 mg/kg/day
- LOAEL (rat [16]; [25]): > 30 mg/kg/day
- NEL (rat [16]; [25]): 10 mg/kg/day
- NOAEL (rat [16]; [25]): ≥ 30 mg/kg/day
- LEL (rat [16]; [37]): 30 mg/kg/day
- LOAEL (rat [16]; [37]): > 30 mg/kg/day
- NEL (rat [16]; [37]): 10 mg/kg/day
- NOAEL (rat [16]; [37]): ≥ 30 mg/kg/day
- LOAEL (rabbit [17]; [38]): > 15 mg/kg/day
- NEL (rabbit [17]; [38]): 0.2 mg/kg/day
- NOAEL (rabbit [17]; [38]): ≥ 15 mg/kg/day
- LEL (rabbit [17]; systemic / in life observation / food consumption / food consumption): 2 mg/kg/day
